Source: patent publication US20190201538A1, “TUMOR-TARGETING PHOTOSENSITIZER-DRUG CONJUGATE, METHOD FOR PREPARING SAME AND PHARMACEUTICAL COMPOSITION FOR PREVENTING OR TREATING TUMOR CONTAINING SAME” (KOREA INSTITUTE OF SCIENCE AND TECHNOLOGY, priority 2018, published 2019)
Numbered stars: 1 amine (or outer) side, 2 acyl side, 3 side chain; on linkers, the order of the positions; unused ones are H or OH. Square brackets hold non-standard residues; d marks the D form. Peptide text beside a SMILES is read from it. * marks the point of attachment. ξ: configuration not given here. X1 = C=Cc1c(C)c2cc3nc(c(CC(=O)O)c4nc(cc5[nH]c(cc1[nH]2)c(C)c5CC)C(C)=C4C(=O)O)C(CCC(=O)*)C3C; Dolaproine = CO[C@@H]([C@@H]1CCCN1)[C@@H](C)C(=O)O; ξDil = CC[C@H](C)C([C@@H](CC(=O)[*:2])OC)N(C)[*:1]; Dil = CC[C@H](C)[C@H](NC)[C@@H](CC(=O)O)OC; PABC = O=C(OCc1ccc(N[*:1])cc1)[*:2]; X2 = C[C@@H](N*)[C@@H](O)c1ccccc1; NMeV = CN[C@H](C(=O)O)C(C)C

Key:
[1] = pyrene method
Source text: Next, emission spectra were obtained at 372 nm and 383 nm using a spectrophotometer (F-7000, Hitachi High-Technologies Corporation, Japan) with an excitation wavelength of 340 nm. […] Fluorescence images were obtained at excitation (660 nm) and emission (710 nm) wavelengths.

SCC7 cells [2] = experiment: Cytotoxicity in vitro (CCK-8), with or without caspase-3; type: cell-based; conditions: for effect on tumor cells at 10 nM without caspase-3: not activated by caspase-3 / alone
Procedure: The cytotoxicity of a drug was evaluated by a colorimetric assay using the cell counting kit-8 (CCK-8; Dojindo Molecular Technologies, Inc., USA). […] After removing the culture medium, the plate was washed twice with PBS.

SCC7 cells [3] = conditions: 50 μg/mL
Procedure: Experiments were conducted using SCC7 cells as follows. Specifically, the cells were cultured in a medium containing 10% fetal bovine serum (FBS) and 1% antibiotic using a 5% CO2 incubator at 37 C. […] After the incubation was completed, the cells were washed and fixed with a 2% paraformaldehyde solution. Then, the cells were stained with 4,6-diamidino-2-phenylindole (DAPI, Invitrogen, USA).

caspase-3 [4] = conditions: 500 nM, CDM + laser
Procedure: Caspase-3 colorimetric assay and western blot were conducted to quantify enzyme expression. First, SCC7 cells were cultured on a 100 mm^2 cell culture dish until 70% confluence and further cultured for 6 hours after adding a drug (500 nM). After replacing the medium, light was irradiated with 20 mW/cm^2 for 5 minutes. After culturing further for 3 hours, the cells were recovered for analysis of caspase-3. For immunoblotting assay, the cells were treated with anti-cleaved caspase-3 antibody (1:650) and anti-PARP antibody (1:1000) purchased from Cell Signaling Technology (Danvers, Mass.) as primary antibodies and then treated with HRP-conjugated anti-rabbit IgG and anti-mouse IgG (1:1000; R&D Systems) as secondary antibodies. The blotted membrane was analyzed with a chemiluminescence imager (LAS-3000; Fuji Photo Film, Japan). Colorimetric assay of caspase-3 was conducted using a microplate reader (VERSAmaxTM, Molecular Devices Corp., USA) and a caspase-3 assay kit (Abcam, Cambridge, MA) according to the manufacturer's instructions.

[5] = Toxicity in vivo in tumor animal model (C3H); set-up: species or system mouse; number of neutrophils: unit not given here; conditions: for change in number of total white blood cells (WBCs): 0.5 mg/kg (CDM based on MMAE concentration); for change in body weight: 50, 200, 500 μg/kg (CDM based on MMAE concentration); for survival rate: CDM 0.25 mg/kg based on MMAE, Ce6 1 mg/kg group
Procedure: The body weight change of the tumor animal model was measured every day after treatment with the drug. […] All the blood samples were stored at 4° C. and analyzed within a day in SCL (Seoul Clinical Laboratories, Korea).
First, a tumor animal model was prepared by transplanting SCC7 tumor cells into a C3H mouse. Details are described above in Materials and methods.
6 groups were prepared as follows by injecting drugs into the tail vein of the tumor animal model. […] The total treatment period was 14 days.

[6] = self-assembled nanoparticle, physiological saline
Procedure: Morphology was observed by transmission electron microscopy (Talos F200X, FEI Company, USA). All the samples were treated with a 1% uranyl acetate solution to obtain negatively stained microscopic images.

SCC7 cells [7] = experiment: Cytotoxicity upon exposure to light (CCK-8)
Procedure: Specifically, 1×10^4 cells were seeded onto each well of a 96-well plate and cultured for 24 hours. Then, the cells were incubated with a drug at 500 nM for 6 hours after washing twice with PBS. After removing the culture medium, the cells were irradiated with light at 2.4 J/cm^2. The cells were then incubated for 30 minutes in a medium containing a 10% CCK-8 solution and absorbance was measured at 450 nm using a microplate reader.
(§1) The black circles indicate the sites irradiated with the laser.

SCC7 cells [8] = conditions: SCC7 cells incubated with CDM, laser irradiation
Procedure: The apoptosis of the fixed cells was measured using an annexin V-FITC apoptosis detection kit (Sigma-Aldrich Co., USA). […] Then, the light-irradiated cells were treated with trypsin and stained for 30 minutes with FITC-annexin V and propidium iodide (PI) according to the manufacturer's instructions. The fluorescence images of the stained cells were obtained using a confocal laser scanning microscope (Leica TCS SP8; Leica Microsystems, Germany).

SCC7 cells [9] = experiment: Trypan blue staining after laser irradiation of a marked area; type: cell-based; conditions: 500 nM, 20 mW/cm^2 for 5 minutes
Procedure: […], SCC7 cells were cultured until 80% confluence on a 60 mm cell culture dish. […] After the incubation was completed, the culture medium was replaced. A laser was irradiated at 20 mW/cm^2 for 5 minutes only onto an area marked with a small circle on the culture dish. Then, the cells were treated with trypan blue for 1 minute.
as §1

[10] = physiological saline
SCC7 tumor [11] = experiment: Biodistribution in vivo by NIR fluorescence imaging in tumor animal model; set-up: species or system mouse
Procedure: Near-infrared (NIR) fluorescence imaging was conducted using a real-time optical imaging system in order to evaluate biodistribution in vivo. […]
For the in-vivo experiment, a tumor animal model was prepared by injecting 1×10^6 SCC7 cells into the left flank of a nude mouse.

[12] = self-assembled nanoparticle, DPBS 0.1 mg/mL
Procedure: Molecular structure was investigated with ChemBioDraw Ultra 12.0 (Cambridge Soft Corporation), PyMOL 1.7.0.1 (DeLano Scientific) or Discovery Studio 4.0. […] Hydrodynamic size and distribution were measured by dynamic light scattering (SZ-100, Horiba, Ltd., Japan) using a 532 nm DPSS laser.

SCC7 tumor [13] = tested on: SCC7 tumor
Procedure: In order to conduct an in-vivo animal experiment, 5-week-oil BALB/c nude mouse mice were used as an allograft tumor animal model (BALB/c). The tumor animal model (BALB/c) was prepared by preparing a cell suspension containing 1×10^6 SCC7 cells and 80 μL of a medium and injecting it into the thighbone at the flank of the BALB/c nude mouse where the effect of respiratory movement is little. Then, the mice were bred for about 8 days until the tumor grew to a size of about 80 mm^3.
The tumor animal model prepared by administering various drugs as described in 9) was subjected to photodynamic therapy and the expression level of caspase-3 in vivo was monitored. For this, NIR fluorescence images were obtained using a probe which is activated by specifically reacting with caspase-3 (Cas3p; Cy5-GDEVD-BHQ3).
After 3 hours, Cas3p was injected and its biodistribution was measured using an excitation filter (640 nm) and an emission filter (710 nm).
First, in order to clarify the stimulation-specific therapeutic effect for a tumor animal model, the same tumor tissue was transplanted into different parts (left and right sides) of the same animal model and the two tumor tissues were compared.
A tumor animal model (Balb/c nu/nu) was prepared as described above in Materials and methods 9).

[14] = Solubility in water, PBS and physiological saline; type: physicochemical; conditions: for solubility in water: dissolved in water alone
SCC7 tumor [15] = experiment: Antitumor effect in tumor animal model (C3H); conditions: for tumor growth with laser: drug + 671 nm laser 25 mW/cm^2, Ce6 1 mg/kg, CDM 0.25 mg/kg based on MMAE; for damage to other organs (biopsy) / tumor cell killing in H&E biopsy: drug + laser
Procedure: For evaluation of therapeutic effect in vivo, tumor volume was measured for a tumor animal model for 14 days. When the tumor tissue grew to a size of about 80 mm^3, the tumor animal model was evaluated by dividing into 6 groups as follows.
Then, the tumor size was measured every other day.
For histological analysis, tumor tissues and organ tissues were taken from the in-vivo animal model after conducting antitumor growth analysis. The extracted tissues were washed with PBS and fixed with a 4% paraformaldehyde solution. Then, the tissues were stained with H&E (hematoxylin and eosin) and the stained tissues were embedded in paraffin and placed on glass slides after cutting into 4 μm thick slices. After removing paraffin, the tissues were stained with H&E and observed under an optical microscope (BX 51; Olympus, USA). […] The tissues were cut into 10 μm thick slices, freeze-dried and then observed under a confocal laser scanning microscope.
A He—Ne laser (671 nm) was used and the laser was irradiated at 25 mW/cm^2 three times for 10 minutes after the injection of the drug (n=6).

caspase-3 [16] = target: caspase-3 (Homo sapiens, UniProt P42574)
Procedure: Finally, the mixture solution was analyzed by RP-HPLC (Agilent 1200 series, Agilent Technology, USA) equipped with a UV detector.

[17] = 1 mg/kg, tail vein
Procedure: For comparative analysis of pharmacokinetic characteristics in vivo, a tumor animal model was prepared in the same manner as in 9) using C57/BL6 mice instead of BALB/c nude mice.
After the injection, 20 μL of blood was taken from the tail vein of the tumor animal model (C57/BL6) over 12 hours at predetermined time intervals. The blood was immediately diluted to 5-fold with a 0.5 mg/kg low-molecular-weight heparin solution (DMSO:DIW cosolvent). Then, after transferring to a 96-well plate, the fluorescence intensity of the drug in the blood was measured by near-infrared (NIR) fluorescence quantification using a real-time optical imaging system equipped with a 660 nm excitation filter and a 710 nm emission filter. A calibration curve was constructed to analyze the concentration of the drug from the detected fluorescence intensity. The calibration curve was constructed by taking blood from an untreated tumor animal model and adjusting the concentration of the drug in the blood to 10^−8-10^−4.

caspase-3 (Homo sapiens, UniProt P42574), sequence (P42574 29-175 limits assumed, species assumed): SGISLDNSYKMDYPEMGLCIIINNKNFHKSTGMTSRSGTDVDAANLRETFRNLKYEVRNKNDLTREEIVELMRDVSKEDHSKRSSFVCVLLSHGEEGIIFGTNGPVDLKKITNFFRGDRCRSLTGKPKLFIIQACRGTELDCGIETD
caspase-3 (Homo sapiens, UniProt P42574), sequence (P42574 176-277 limits assumed, species assumed): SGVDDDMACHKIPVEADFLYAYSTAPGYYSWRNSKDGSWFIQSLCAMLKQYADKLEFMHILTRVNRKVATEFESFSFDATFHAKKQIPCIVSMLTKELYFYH

C=Cc1c(C)c2cc3nc(c(CC(=O)O)c4nc(cc5[nH]c(cc1[nH]2)c(C)c5CC)C(C)=C4C(=O)O)C(CCC(=O)NCCCC[C@H](NC(C)=O)C(=O)NCC(=O)N[C@@H](CC(=O)O)C(=O)N[C@@H](CCC(=O)O)C(=O)N[C@H](C(=O)N[C@@H](CC(=O)O)C(=O)Nc1ccc(COC(=O)N(C)[C@H](C(=O)N[C@H](C(=O)N(C)C([C@@H](C)CC)[C@@H](CC(=O)N2CCC[C@H]2[C@H](OC)[C@@H](C)C(=O)N[C@H](C)[C@@H](O)c2ccccc2)OC)C(C)C)C(C)C)cc1)C(C)C)C3C (stereo partly shown) [CDM, Ce6-(Ac)KGDEVD-PABC-MMAE] (Ac-K(X1)GDEVD[PABC][NMeV]V[ξDil][Dolaproine]-X2)
critical micelle concentration (CMC) [1]: about 1.382 μM | tumor cell growth (cell viability, CCK) (SCC7 cells [2]; 10 nM in combination with caspase-3): 50.1% | effect on tumor cells at 10 nM without caspase-3 (SCC7 cells [2]): little effect | cell survival rate (SCC7 cells [2]; 50 nM in the presence of caspase-3): 42.5% | cell survival rate (SCC7 cells [2]; 200 nM in the presence of caspase-3): 32.5% | cell survival rate (SCC7 cells [2]; 600 nM in the presence of caspase-3): 25.5% | time to accumulation in the cells in an enough amount (SCC7 cells [3]): ≤ 3 h | intracellular caspase-3 level (western blot) (caspase-3 [4]): increased the intracellular concentration of caspase-3 | change in number of total white blood cells (WBCs) [5]: no change | number of neutrophils ([5]; 0.5 mg/kg based on MMAE concentration): 1.6±1.0000 | change in body weight [5]: 4.8±0.2% | survival rate [5]: 100% | average diameter (TEM images) [6]: about 52.6±20.0 nm | cell viability (SCC7 cells [7]; 500 nM, light irradiated from outside (laser (+))): 12.8±9.2% | cytotoxic effect compared to when the drugs are used alone (SCC7 cells [7]; after external stimulation (light irradiation or caspase-3)): ≥ 2 time | apoptosis induction on light irradiation (SCC7 cells [8]): can induce apoptosis even with a small quantity of light | cells killed after laser irradiation of a marked area (SCC7 cells [9]): nearby cells were also killed effectively | average diameter (SEM) [10]: 50-200 nm | fluorescence intensity in organs and tumor 24 hours after injection (SCC7 tumor [11]; liver, lung, spleen, kidney, heart and tumor tissues): high | fluorescence intensity in the tumor tissue relative to Ce6-injected model (SCC7 tumor [11]; mouse, in vivo): 12.8-4.2 | time of highest fluorescence intensity in the tumor (SCC7 tumor [11]; tail vein injection): 6 to 12 h | average diameter (hydrodynamic, DLS) [12]: 90.8±18.9 nm | growth of left-side vs right-side (laser) tumor (SCC7 tumor [13]; 0.5 mg/kg, 15 days): distinct difference in the growth of the left-side and right-side tumors | caspase-3 probe (Cy5-GDEVD-BHQ3) fluorescence in tumors (SCC7 tumor [13]; CDM i.v., laser on right-side tumor only): observed only in the right-side tumor | solubility ([14]; water, PBS and physiological saline): dissolves well in all of water, PBS and physiological saline | tumor size with time, no laser (SCC7 tumor [15]; CDM group, laser not irradiated): no change in tumor size | tumor weight decrease compared to the CDM group and the laser group (SCC7 tumor [15]; CDM+laser group): 99.6% | tumor growth with laser (SCC7 tumor [15]): no tumor growth | damage to other organs (biopsy) (SCC7 tumor [15]): no damage to other organs | tumor cell killing in H&E biopsy (SCC7 tumor [15]): killed extensively | time to effective activation by caspase-3 (caspase-3 [16]; 10 μM CDM, 500 ng/mL caspase-3, 37° C.): ≤ 2 h | activation by caspase-3 in presence of caspase-3 inhibitor (Z-DEVD-FMK) (caspase-3 [16]; incubation for 2 hours): not completely activated | blood level at first [17]: higher than that of Ce6

CC[C@H](C)[C@@H]([C@@H](CC(=O)N1CCC[C@H]1[C@H](OC)[C@@H](C)C(=O)N[C@H](C)[C@@H](O)c1ccccc1)OC)N(C)C(=O)[C@@H](NC(=O)[C@@H](NC)C(C)C)C(C)C [MMAE, monomethyl auristatin E] (H-[NMeV]V[Dil][Dolaproine]-X2)
increase in plasma ALT ([5]; 0.5 mg/kg): 1.5 times | increase in plasma AST ([5]; 0.5 mg/kg): 2.7 times | neutrophils, times less as compared to the saline group ([5]; 0.5 mg/kg): 4.9 times | percentage of the neutrophils to the total white blood cells ([5]; 0.5 mg/kg): 2.5±1.4% | change in number of total white blood cells (WBCs) [5]: 35.7±13.8% | change in body weight [5]: 31.6±2.2% | day on which all were killed ([5]; MMAE 0.25 mg/kg): 4 days | day on which group began to die ([5]; MMAE 0.25 mg/kg): 3 days | size of lymphocytes (lymphoid tissue; white pulp) in spleen ([5]; MMAE group): significantly decreased | spleen weight decrease ([5]; MMAE group): 75±11.8% | body weight decrease ([5]; MMAE group, 0.25 mg/kg): 31.9±1.6% | cell viability (SCC7 cells [7]; treated with MMAE only): 25.8±10.1% | solubility in water [14]: water insolubility | outcome of group during the antitumor experiment (SCC7 tumor [15]; MMAE 0.25 mg/kg only): died during the experiment because of too strong toxicity

Chlorin e6 [Ce6, reference compound]
effect on tumor cells at 10 nM without caspase-3 (SCC7 cells [2]): no effect | survival rate [5]: 100% | cells killed after laser irradiation of a marked area (SCC7 cells [9]): only the cells treated with a laser were killed | fluorescence in the tumor tissue (SCC7 tumor [11]; tail vein injection): hardly detected | solubility in water [14]: water insolubility | tumor growth with laser (SCC7 tumor [15]): tumor growth-inhibiting effect | damage to other organs (biopsy) (SCC7 tumor [15]): no damage to other organs | tumor cell killing in H&E biopsy (SCC7 tumor [15]): very insignificant
